Results reported in patent US11691972B2, “Compounds for targeted degradation of BRD9” (C4 Therapeutics, Inc., priority 2020, dated 2023).

Columns and labels:
[1] = tested on: Synovial Sarcoma PDX model (SA13412); assay: Tumor volume in the Synovial Sarcoma PDX model (SA13412); assay type: in vivo; conditions: various concentrations, FIG. 23
BRD9 [2] = target: T1, BRD9 (Homo sapiens, UniProt Q9H8M2); assay: Protein degradation by HiBiT luminescent readout (BRD9, BRD7, BRD4); assay type: cell-based; design: endogenously expressing BRD9 with HiBiT fusion tag via CRISPR; host or cells: 293T.166 (BRD9-HiBiT), also expressing LgBiT ectopically; conditions: FIG. 11
T1 sequence (Q9H8M2 1-597): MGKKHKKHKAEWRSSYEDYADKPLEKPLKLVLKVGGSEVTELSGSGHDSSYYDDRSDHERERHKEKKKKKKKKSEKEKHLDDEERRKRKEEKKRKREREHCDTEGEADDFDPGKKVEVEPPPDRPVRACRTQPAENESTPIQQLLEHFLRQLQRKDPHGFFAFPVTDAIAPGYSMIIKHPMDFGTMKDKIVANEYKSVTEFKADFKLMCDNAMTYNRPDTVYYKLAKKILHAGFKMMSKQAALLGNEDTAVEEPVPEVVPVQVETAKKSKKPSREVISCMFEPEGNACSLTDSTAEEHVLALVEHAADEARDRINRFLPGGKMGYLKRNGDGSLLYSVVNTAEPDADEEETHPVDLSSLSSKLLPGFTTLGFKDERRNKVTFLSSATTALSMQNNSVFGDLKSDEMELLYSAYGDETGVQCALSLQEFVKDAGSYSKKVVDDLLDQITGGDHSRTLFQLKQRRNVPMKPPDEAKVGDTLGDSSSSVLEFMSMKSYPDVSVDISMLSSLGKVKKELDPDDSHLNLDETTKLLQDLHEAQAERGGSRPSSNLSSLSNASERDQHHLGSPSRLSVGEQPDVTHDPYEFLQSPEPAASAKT

CYP 2C19 = CYP 2C19 (Homo sapiens, UniProt P33261); assay: CYP inhibition 2C19; assay type: in vitro ADME
BRD9 [3] = target: BRD9 (Canis lupus familiaris, UniProt A0A8I3PU24); assay: BRD9 degradation in dog cells (24 h); assay type: cell-based
IV PK, dog = assay type: in vivo
E3 = E3 (Homo sapiens, UniProt Q96SW2); assay: FP-E3 binding (Kd)
Chain of E3 (Q96SW2 whole entry): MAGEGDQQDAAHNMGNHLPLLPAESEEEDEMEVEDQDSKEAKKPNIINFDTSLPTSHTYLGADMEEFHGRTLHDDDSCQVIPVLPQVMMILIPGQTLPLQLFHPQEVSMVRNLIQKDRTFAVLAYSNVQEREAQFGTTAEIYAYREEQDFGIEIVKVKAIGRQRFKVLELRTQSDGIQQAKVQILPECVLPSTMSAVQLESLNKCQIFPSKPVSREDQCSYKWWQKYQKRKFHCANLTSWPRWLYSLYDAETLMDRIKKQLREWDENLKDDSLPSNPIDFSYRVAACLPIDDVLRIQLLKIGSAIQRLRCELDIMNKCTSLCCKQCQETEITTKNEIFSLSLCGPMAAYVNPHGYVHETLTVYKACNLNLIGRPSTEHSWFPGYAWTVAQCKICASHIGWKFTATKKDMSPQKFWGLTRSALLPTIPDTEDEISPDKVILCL

Chain of BRD9 (Canis lupus familiaris, UniProt A0A8I3PU24) (A0A8I3PU24 1-600): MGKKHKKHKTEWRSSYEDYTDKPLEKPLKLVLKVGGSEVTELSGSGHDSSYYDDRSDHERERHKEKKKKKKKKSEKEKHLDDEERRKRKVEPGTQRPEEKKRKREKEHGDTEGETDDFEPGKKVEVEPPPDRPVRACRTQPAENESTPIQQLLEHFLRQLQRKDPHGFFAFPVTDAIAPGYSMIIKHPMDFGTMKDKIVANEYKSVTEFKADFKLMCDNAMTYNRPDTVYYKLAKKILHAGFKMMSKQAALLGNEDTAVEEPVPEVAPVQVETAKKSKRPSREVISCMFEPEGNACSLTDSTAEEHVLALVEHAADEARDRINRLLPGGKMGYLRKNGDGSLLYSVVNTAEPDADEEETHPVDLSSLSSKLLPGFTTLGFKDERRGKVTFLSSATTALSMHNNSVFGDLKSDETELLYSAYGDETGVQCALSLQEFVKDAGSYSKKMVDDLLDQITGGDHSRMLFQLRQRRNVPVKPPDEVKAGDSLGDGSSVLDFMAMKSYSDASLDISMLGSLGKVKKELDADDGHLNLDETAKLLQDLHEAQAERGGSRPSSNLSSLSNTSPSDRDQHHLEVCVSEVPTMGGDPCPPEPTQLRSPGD
Chain of CYP 2C19 (P33261 whole entry): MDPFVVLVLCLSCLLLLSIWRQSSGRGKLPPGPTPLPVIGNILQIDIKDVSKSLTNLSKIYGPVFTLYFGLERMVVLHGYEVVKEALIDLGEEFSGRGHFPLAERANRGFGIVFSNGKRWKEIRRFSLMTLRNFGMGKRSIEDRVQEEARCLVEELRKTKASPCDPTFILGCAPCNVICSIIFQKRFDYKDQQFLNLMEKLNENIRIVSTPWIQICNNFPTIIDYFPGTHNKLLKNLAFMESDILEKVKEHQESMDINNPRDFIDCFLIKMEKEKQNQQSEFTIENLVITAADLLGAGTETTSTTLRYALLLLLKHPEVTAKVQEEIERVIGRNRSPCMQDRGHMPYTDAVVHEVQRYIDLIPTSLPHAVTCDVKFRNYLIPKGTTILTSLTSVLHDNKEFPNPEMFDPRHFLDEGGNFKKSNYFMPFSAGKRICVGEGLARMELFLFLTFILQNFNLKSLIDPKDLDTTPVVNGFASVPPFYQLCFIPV

Compound | mean tumor volume+SEM [1] | protein degradation levels by HiBiT luminescent readout, BRD9 versus BRD7 and BRD4 (BRD9 [2]) | IC50 (CYP 2C19) [nM] | BRD9 degradation dog cells (24 h), percent (BRD9 [3]) [%] | DC50 (BRD9 [3]; read-out: BRD9 degradation dog cells (24 h), concentration) [nM] | IV PK AUC(0-last) (IV PK, dog; dose-normalised) | IV PK Cmax (IV PK, dog; dose-normalised) | clearance (IV PK, dog; in vivo, read-out: IV PK CL) [mL/min/kg] | Vd (IV PK, dog; in vivo, read-out: IV PK Vdss) [L/kg] | half-life (IV PK, dog; in vivo, read-out: IV PK t1/2 (converted)) [h] | Kd (E3) [nM]
COc1cc(-c2cn(C)c(=O)c(C)c2C)cc(OC)c1CN1CCC(N2CCN(c3ccc(NC4CCC(=O)NC4=O)cc3F)CC2)C(F)(F)C1 (single isomer, unassigned) [Compound 176, 3-[4-[4-[1-[[2,6-dimethoxy-4-(1,4,5-trimethyl-6-oxo-3-pyridyl)phenyl]methyl]-3,3-difluoro-4-piperidyl]piperazin-1-yl]-3-fluoro-anilino]piperidine-2,6-dione] | efficacy | selective degradation | – | – | – | – | – | – | – | – | –
COc1cc(-c2cn(C)c(=O)c(C)c2C)cc(OC)c1CN1CCC(N2CCN(c3ccc(NC4CCC(=O)NC4=O)cc3F)CC2)C(F)(F)C1 (centres unmarked) [Compound 172, 3-[4-[4-[1-[[2,6-dimethoxy-4-(1,4,5-trimethyl-6-oxo-3-pyridyl)phenyl]methyl]-3,3-difluoro-4-piperidyl]piperazin-1-yl]-3-fluoro-anilino]piperidine-2,6-dione] | – | – | 30000 | 36.4 | 99 | 2343 (h*ng/mL)/(mg/kg) | 767 [ng/mL]/(mg/kg) | 6.2 | 4.36 | 8.8 | 950
